PubChem BioAssay (NCI)
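Dose response: 5 concentrations. Exposure: 48 h. Format: 96-well plates. Endpoint: linear interpolation; highest concentration if not reached. Definition used: TGI = concentration required for complete inhibition of growth.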

Key:
Experiment in all cases: NCI-60 cell line screen, 48 h
IGROV1 ovarian = test system: IGROV1 ovarian
SN12C renal = test system: SN12C renal
T-47D breast = test system: T-47D breast
NCI-H460 lung = test system: NCI-H460 lung
MCF7 breast = test system: MCF7 breast
MDA-N = test system: MDA-N
SK-MEL-2 melanoma = test system: SK-MEL-2 melanoma
NCI-H226 lung = test system: NCI-H226 lung
HCT-116 colon = test system: HCT-116 colon
TK-10 renal = test system: TK-10 renal
RXF 393 renal = test system: RXF 393 renal
NCI/ADR-RES ovarian = test system: NCI/ADR-RES ovarian
UO-31 renal = test system: UO-31 renal
HL-60(TB) leukemia = test system: HL-60(TB) leukemia
OVCAR-3 ovarian = test system: OVCAR-3 ovarian
KM12 colon = test system: KM12 colon
SW-620 colon = test system: SW-620 colon
K-562 leukemia = test system: K-562 leukemia
UACC-62 melanoma = test system: UACC-62 melanoma
HT29 colon = test system: HT29 colon
MALME-3M melanoma = test system: MALME-3M melanoma
EKVX NSCLC = test system: EKVX NSCLC
OVCAR-5 ovarian = test system: OVCAR-5 ovarian
MOLT-4 leukemia = test system: MOLT-4 leukemia
HCT-15 colon = test system: HCT-15 colon
UACC-257 melanoma = test system: UACC-257 melanoma
SK-MEL-28 melanoma = test system: SK-MEL-28 melanoma
MDA-MB-435 = test system: MDA-MB-435
COLO 205 colon = test system: COLO 205 colon
A549 NSCLC = test system: A549 NSCLC
SK-MEL-5 melanoma = test system: SK-MEL-5 melanoma
SF-295 CNS = test system: SF-295 CNS
HCC-2998 colon = test system: HCC-2998 colon
NCI-H522 lung = test system: NCI-H522 lung
OVCAR-8 ovarian = test system: OVCAR-8 ovarian
OVCAR-4 ovarian = test system: OVCAR-4 ovarian
CAKI-1 renal = test system: CAKI-1 renal
BT-549 breast = test system: BT-549 breast
CCRF-CEM leukemia = test system: CCRF-CEM leukemia
PC-3 prostate = test system: PC-3 prostate
SF-539 CNS = test system: SF-539 CNS
SK-OV-3 ovarian = test system: SK-OV-3 ovarian
SR leukemia = test system: SR leukemia
DU-145 prostate = test system: DU-145 prostate
M14 melanoma = test system: M14 melanoma
U251 CNS = test system: U251 CNS
MDA-MB-231 breast = test system: MDA-MB-231 breast
ACHN renal = test system: ACHN renal
786-0 renal = test system: 786-0 renal
SNB-19 CNS = test system: SNB-19 CNS
LOX IMVI melanoma = test system: LOX IMVI melanoma
HOP-92 NSCLC = test system: HOP-92 NSCLC
SNB-75 CNS = test system: SNB-75 CNS
NCI-H23 lung = test system: NCI-H23 lung
HOP-62 NSCLC = test system: HOP-62 NSCLC
RPMI-8226 leukemia = test system: RPMI-8226 leukemia
A498 renal = test system: A498 renal
HS 578T breast = test system: HS 578T breast
SF-268 CNS = test system: SF-268 CNS

Measured: TGI

COC(=O)C1=C(C(=O)OC)C(OO)(c2ccccc2)OC1=O (stereo not drawn)
96 µM: LOX IMVI melanoma
not listed: HOP-62 NSCLC | RPMI-8226 leukemia | A498 renal | HS 578T breast | SF-268 CNS
> 100 µM: all other assays above

CC(=O)c1c2c(cc3c1CC1(C3)Cc3cc4c(c(C(C)=O)c3C1)CCCC4)CCCC2
76.5 µM: MOLT-4 leukemia
40 µM: HL-60(TB) leukemia
44 µM: CCRF-CEM leukemia
53.2 µM: SR leukemia
0.314 µM: UO-31 renal
83.2 µM: SK-MEL-2 melanoma
35.4 µM: SK-MEL-5 melanoma
not listed: NCI-H460 lung | SW-620 colon | SK-MEL-28 melanoma | CAKI-1 renal | BT-549 breast | DU-145 prostate | SNB-19 CNS | SNB-75 CNS | SF-268 CNS
> 100 µM: all other assays above

Oc1ccc2ccccc2c1NCn1nc(CCCCCCCCc2nn(CNc3c(O)ccc4ccccc34)c(=S)o2)oc1=S
79.4 µM: HCT-116 colon
not listed: T-47D breast | RXF 393 renal | HL-60(TB) leukemia | OVCAR-3 ovarian | OVCAR-8 ovarian | CCRF-CEM leukemia | SF-539 CNS | SR leukemia | LOX IMVI melanoma | HS 578T breast
> 100 µM: all other assays above
